How the values were obtained:
[1] = biological target: T1, Amine oxidase [flavin-containing] A (Homo sapiens, UniProt P21397); assay: Inhibition of human recombinant MAOA by fluorimetric method; conditions: for Activity: human
T1 sequence (P21397 whole entry): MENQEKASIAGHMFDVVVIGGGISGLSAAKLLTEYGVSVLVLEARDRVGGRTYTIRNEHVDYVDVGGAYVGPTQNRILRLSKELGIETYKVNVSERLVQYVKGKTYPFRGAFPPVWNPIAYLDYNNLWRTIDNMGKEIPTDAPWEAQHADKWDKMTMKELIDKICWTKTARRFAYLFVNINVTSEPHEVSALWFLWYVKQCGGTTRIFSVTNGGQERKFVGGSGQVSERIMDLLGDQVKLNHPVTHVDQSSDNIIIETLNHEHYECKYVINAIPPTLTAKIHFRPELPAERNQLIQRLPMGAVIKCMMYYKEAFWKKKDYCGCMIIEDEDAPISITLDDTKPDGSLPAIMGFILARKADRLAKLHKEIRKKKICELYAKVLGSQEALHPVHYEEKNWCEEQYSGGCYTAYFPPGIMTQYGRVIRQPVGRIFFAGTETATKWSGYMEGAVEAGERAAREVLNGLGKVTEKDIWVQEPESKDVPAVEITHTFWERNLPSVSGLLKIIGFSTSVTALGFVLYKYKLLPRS

[2] = biological target: T2, Amine oxidase [flavin-containing] B (Homo sapiens, UniProt P27338); assay: Inhibition of human liver MAOB
T2 sequence (P27338 whole entry): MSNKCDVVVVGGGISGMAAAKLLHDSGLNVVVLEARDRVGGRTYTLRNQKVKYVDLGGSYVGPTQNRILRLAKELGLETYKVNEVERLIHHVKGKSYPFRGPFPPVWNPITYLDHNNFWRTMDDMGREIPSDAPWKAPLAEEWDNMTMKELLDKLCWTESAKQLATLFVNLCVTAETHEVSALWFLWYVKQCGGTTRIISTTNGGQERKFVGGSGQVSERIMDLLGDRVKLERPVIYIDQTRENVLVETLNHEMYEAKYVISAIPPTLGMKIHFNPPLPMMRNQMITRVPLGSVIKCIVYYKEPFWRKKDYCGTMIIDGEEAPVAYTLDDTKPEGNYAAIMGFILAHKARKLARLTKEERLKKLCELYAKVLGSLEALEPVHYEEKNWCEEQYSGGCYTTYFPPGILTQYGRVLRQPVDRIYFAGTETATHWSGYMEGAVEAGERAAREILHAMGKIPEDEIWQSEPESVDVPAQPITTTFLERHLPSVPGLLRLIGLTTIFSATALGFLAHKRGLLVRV

[3] = biological target: T2, Amine oxidase [flavin-containing] B; assay: Inhibition of human recombinant MAOB at 100 uM by fluorimetric method
[4] = biological target: T1, Amine oxidase [flavin-containing] A; assay: Inhibition of human liver MAOA

| SMILES | Activity [1] | Activity [4] | other results |
| --- | --- | --- | --- |
| CCC1(c2ccccc2)C(=O)NCNC1=O [PRIMIDONE] | Not Active |  |  |
| CC(/C=N/NC(=N)N)=N\NC(=N)N [MITOGUAZONE] | Not Active |  |  |
| Cc1cccc(C)c1NC(=O)C1CCCCN1C (stereo not drawn) [MEPIVACAINE] |  |  | Activity [2]: Not Active; Activity [3]: Not Active |
| CN1C(CSCC(F)(F)F)Nc2cc(Cl)c(S(N)(=O)=O)cc2S1(=O)=O (stereo not drawn) [POLYTHIAZIDE] |  | Not Active |  |
| Cc1ccc(S(=O)(=O)NC(=O)N[C@H]2[C@H]3CC[C@@](C)([C@H]2O)C3(C)C)cc1 [GLIBORNURIDE] | Not Active |  |  |
| O=c1[nH]nc(-c2ccncc2)o1 [NEOVADRINE] |  | Not Active |  |
| [H]/N=C(/N)NS(=O)(=O)c1ccc(N)cc1 [SULFAGUANIDINE] |  | Not Active |  |
| CCCCC1=C2N=C(N)N[C@H]3CC[C@@H](C[C@@H]1C)[C@@H]23 [PTILOCAULINE] |  | Not Active |  |
| C=CC1=C(C(=O)O)N2C(=O)[C@@H](NC(=O)/C(=N\OCC(=O)O)c3csc(N)n3)[C@H]2SC1 [CEFIXIME] | Not Active |  |  |
| CO[C@@]12[C@H](COC(N)=O)C3=C(C(=O)C(C)=C(N)C3=O)N1C[C@H]1[C@@H]2N1c1ccc(O)cc1 | Not Active |  |  |
| NC(=O)NO [HYDROXYUREA] | Not Active |  |  |
| Nc1ccc(S(=O)(=O)Nc2ncccn2)cc1 [SULFADIAZINE] |  | Not Active |  |
| CC1=C(/C=C/C(C)=C/C=C/C(C)=C/CO)C(C)(C)CCC1 [RETINOL] | Not Active |  |  |
| N[C@@H]1C[C@H]1c1ccccc1.N[C@H]1C[C@@H]1c1ccccc1 (racemic) [TRANYLCYPROMINE] |  | Not Active | Activity [2]: Not Active |
| CCOC(=O)OC(C)OC(=O)[C@@H]1N2C(=O)[C@@H](NC(=O)[C@H](N)c3ccccc3)[C@H]2SC1(C)C (stereo partly drawn) [BACAMPICILLIN] |  | Not Active | Activity [2]: Not Active |
| Cc1noc(NS(=O)(=O)c2ccc(N)cc2)c1C [SULFISOXAZOLE] | Not Active |  |  |
| COc1cc2c(cc1O)N=C[C@@H]1CC[C@H](O)N1C2=O [NEOTHRAMYCIN A] |  | Not Active |  |
| CC[C@H](c1ccc(OP(=O)(O)O)cc1)[C@@H](CC)c1ccc(OP(=O)(O)O)cc1 [HEXESTROL DIPHOSPHATE] |  |  | Activity [2]: Not Active; Activity [3]: Not Active |
| COCCOC(=O)C1=C(C)NC(C)=C(C(=O)OC(C)C)C1c1cccc([N+](=O)[O-])c1 (stereo not drawn) [NIMODIPINE] | Not Active |  |  |
| N#CC(O[C@@H]1O[C@H](CO[C@@H]2O[C@H](CO)[C@@H](O)[C@H](O)[C@H]2O)[C@@H](O)[C@H](O)[C@H]1O)c1ccccc1 (stereo partly drawn) [VITAMIN B17] | Not Active |  |  |
| CC(=O)OCC(=O)[C@@]12N=C(C)O[C@@H]1C[C@H]1[C@@H]3CCC4=CC(=O)C=C[C@]4(C)[C@H]3[C@@H](O)C[C@@]12C [DEFLAZACORT] |  | Not Active | Activity [2]: Not Active |
| COC(=O)[C@H](Cc1cnc[nH]1)NC(=O)Cc1ccc(N(CCCl)CCCl)cc1 |  |  | Activity [2]: Not Active; Activity [3]: Not Active |

| SMILES | Activity [1] | Activity [4] | other results |
| --- | --- | --- | --- |
| CCC1(c2ccccc2)C(=O)NC(=O)NC1=O [PHENOBARBITAL] | Not Active |  |  |
| CC(C)Cc1ccc(C(C)C(=O)O)cc1 (stereo not drawn) [IBUPROFEN] | Not Active |  |  |
| OC1CCCCC1N1CCC(c2ccccc2)CC1 (stereo not drawn) |  | Not Active | Activity [2]: Not Active |
| CCCCNc1ccc(C(=O)OCCN(C)C)cc1 [TETRACAINE] |  | Not Active | Activity [2]: Not Active |
| CCc1nc(N)nc(N)c1-c1ccc(Cl)c(Cl)c1 [ETOPRINE] | Not Active |  |  |
| OC[C@H]1O[C@@H](n2cnc3c(S)ncnc32)[C@H](O)[C@@H]1O [THIOINOSINE] | Not Active |  |  |
| C=CC(=O)NCNC(=O)CCBr [BROMACRYLIDE] | Not Active |  |  |
| Cn1cc(I)ccc1=O |  | Not Active |  |
| CNCCc1ccc(OC(=O)C(C)C)c(OC(=O)C(C)C)c1 [IBOPAMINE] | Not Active |  |  |
| CC(c1cnc2nc(N)nc(N)c2n1)N(C)c1ccc(C(=O)N[C@@H](CCC(=O)O)C(=O)O)cc1 (stereo partly drawn) [ADENOPTERIN] | Not Active |  |  |
| O=C1c2ccccc2C(=O)c2c(NCCNCCO)ccc(NCCNCCO)c21 [AMETANTRONE] |  | Not Active | Activity [2]: Not Active |
| C[C@H]1CC2=CC(=O)CC[C@]2(C)[C@H]2CC[C@@]3(C)[C@@H](CC[C@]3(C)O)[C@H]12 [CALUSTERONE] | Not Active |  |  |
| COC1=C(C)C(=O)C2=C(C1=O)[C@@H](CO)N1[C@H]3[C@H]4[C@@H](C[C@H]([C@H]1C#N)N4C)[C@@H]1OCCN1[C@@H]23 [CYANOCYCLINE A] | Not Active |  |  |
| CC(=O)OC1C=CC(=O)OC1C1OC1C (stereo not drawn) [ASPERLIN] | Not Active |  |  |
| CCCCCCCCCCCCCCCC(=O)N(CCCCN(C)C)CCCCN(C)C [SOLAPALMITINE] | Not Active |  |  |
| OC[C@@H](O)[C@@H](O)[C@H](O)[C@H](O)CO [MANNITOL] | Not Active |  |  |
| CC(CCc1ccccc1)NCC(O)c1ccc(O)c(C(N)=O)c1 (stereo not drawn) [LABETALOL] | Not Active |  |  |
| C[C@@H]1C[C@@H]([C@H](O)CC2CC(=O)NC(=O)C2)C(=O)[C@@H](C)C1 [CYCLOHEXIMIDE] | Not Active |  |  |
| O=C(O)CCCCSc1[nH]cnc2ncnc1-2 [BUTHIOPURINE] |  | Not Active |  |
| CC[C@H](C)[C@@H]1NC(=O)[C@H](Cc2ccc(O)cc2)NC(=O)[C@@H](N)CSSC[C@@H](C(=O)N2CCC[C@H]2C(=O)N[C@@H](CC(C)C)C(=O)NCC(N)=O)NC(=O)[C@H](CC(N)=O)NC(=O)[C@H](CCC(N)=O)NC1=O [OXYTOCIN] |  | Not Active |  |
| CC(=O)Nc1nnc(S(N)(=O)=O)s1 [ACETAZOLAMIDE] |  | Not Active | Activity [2]: Not Active |
| O=C(NP(=O)(N1CC1)N1CC1)c1ccc(F)cc1 [FLUORBENZOTEF] | Not Active |  |  |

| SMILES | Activity [1] | Activity [4] | other results |
| --- | --- | --- | --- |
| C[C@H](N)C(=O)N[C@@H]1[C@H]2C(=C(O)C[C@@H](O)[C@@H]2O)C(=O)O[C@]1(C)C(Cl)Cl [BACTOBOLIN] |  | Not Active | Activity [2]: Not Active |
| O=NN(CCCl)C(=O)NCCO [ELMUSTINE] | Not Active |  |  |
| O[C@@H]([C@H](O)[C@H](O)CBr)[C@H](O)CBr [MITOBRONITOL] | Not Active |  |  |
| COc1cccc2c1C(=O)c1c(O)c3c(c(O)c1C2=O)C[C@@](O)(C(=O)CO)C[C@@H]3O[C@H]1C[C@H](N)[C@H](O)[C@H](C)O1 [DOXORUBICIN] | Not Active |  |  |
| COc1cc(NC(C)CCCN)c2ncccc2c1 (stereo not drawn) [PRIMAQUINE] | Not Active |  |  |
| COc1ccc(Cl)cc1C(=O)NCCc1ccc(S(=O)(=O)NC(=O)NC2CCCCC2)cc1 [GLYBURIDE] | Not Active |  |  |
| CCOC(=O)[C@H](Cc1ccc(O)cc1)NC(=O)[C@H](Cc1ccc(N(CCCl)CCCl)cc1)NC(C)=O [ASDOPHAN] | Not Active |  |  |
| CCOC(N)=O |  | Not Active | Activity [2]: Not Active |
| C=CCC(C(=O)NC(N)=O)C(C)C (stereo not drawn) [APRONAL] |  | Not Active |  |
| COc1c(O)ccc2c(C)cc(=O)oc12 |  |  | IC50 [1]: 80.3 µM; Activity [3]: Not Active |
| O=C(O)c1ccc(NC2OC[C@@H](O)[C@H](O)[C@H]2O)cc1 (stereo partly drawn) [BENAXIBINE] | Not Active |  |  |
| CCC1(C)CC(=O)NC1=O (stereo not drawn) [ETHOSUXIMIDE] |  |  | Activity [3]: Not Active |
| Nc1nc(=O)c2nc(CNc3ccc(C(=O)NC(CCC(=O)NC(CCC(=O)NC(CCC(=O)O)C(=O)O)C(=O)O)C(=O)O)cc3)cnc2[nH]1 (stereo not drawn) [PTEROPTERIN] |  | Not Active |  |
| CCOc1ccc(NC(C)=O)cc1.Cl [PHENACETIN CHLORIDE] |  | Not Active |  |
| CN(C)[C@@H]1C(O)=C(C(N)=O)C(=O)[C@@]2(O)C(O)=C3C(=O)c4c(O)cccc4[C@@](C)(O)[C@H]3[C@H](O)[C@@H]12 [OXYTETRACYCLINE] |  | Not Active |  |
| Clc1sc(Cl)c(Cl)c1Cl [TETRACHLOROTHIOPHENE] |  | Not Active | Activity [2]: Not Active |
| CCOC(=O)/C=C1\SC(N2CCCCC2)C(=O)N1C (stereo not drawn) [ETOZOLIN] | Not Active |  |  |
| Cc1cc(Cl)ccc1OCC(=O)O [METAXON] | Not Active |  |  |
| CC(=O)Nc1ccc(/C=N/NC(N)=S)cc1 [AMITHIOZONE] | Not Active |  |  |
| Cc1nnc(SCC2=C(C(=O)O)N3C(=O)[C@@H](NC(=O)Cn4cnnn4)[C@H]3SC2)s1 [CEFAZOLIN] | Not Active |  |  |

From ChEMBL document CHEMBL1152129, “Quantitative structure-activity relationship and complex network approach to monoamine oxidase A and B inhibitors” (J Med Chem, 2008)
